Like-named read-outs stand apart in the source and are kept apart here.
Columns and labels:
[1] = Stability in pH2 buffered solution; type: physicochemical
Description: Example N: Stability in p112 and p117 Buffered Solutions
The aqueous stability of compounds over a time of 24 hours at 40° C. was assessed. Stability was determined in 50 mM phosphate buffered solutions at both pH2 and pH7, with 150 mM NaCl (to achieve isotonicity). 3-5 mg of solid compounds were added to 7 mL scintillation vials. Acetonitrile was added to each vial to produce a 1 mg/mL stock solution. Stock solutions were diluted to 50 μg/mL in either pH2 or pH7 phosphate buffer, to a volume of 1 mL. For each compound and pH condition, 50 μg/mL samples were prepped in duplicate. One sample was placed on the UPLC tray at 40° C. for analysis, and the second sample was placed in a 40° C. oven for storage. Sample preps for each compound were offset by 40 minutes to account for run time on UPLC.
Concentration timepoints were measured at 0, 3, 6, 9, and 12 hrs. After 24 hrs, samples in the 40° C. oven were removed and analyzed by UPLC.
In FIG. 2, % AN stands for % area normalized. That is, % AN is the area of the compound peak relative to the sum of areas of all the peaks in the UPLC chromatogram. For example, if there were two peaks, compound peak with an area of 9 and another peak with an area of 1, then the % AN of the compound peak would be 90%.

[2] = CC50 MT4 cytotoxicity (Cell-Titer Glo); type: cell-based; settings: human
Method in brief: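 Uninfected MT-4 and HEp-2 cells cultured 4-5 days at 37° C with 3-fold serially diluted compound (15 nM to 100,000 nM). Viability read by Cell-Titer Glo luminescence; untreated and 2 μM puromycin wells set 100% and 0%. CC50 from non-linear regression as concentration reducing viability by 50%.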

[3] = test system: Respiratory syncytial virus recombinant with luciferase (RSV-Luc5) in HEp-2 cells; assay: microbe, parasite or virus in culture; type: cell-based; settings: human respiratory syncytial virus, HEp-2, 72 h, read-out: RSV Hep2 EC50
[4] = GI S9 stability - no PMSF; type: in vitro ADME; settings: pH 7.4; human intestinal S9, PMSF-free; read-out: GIS9-HUMAN-NoPMSF T1/2
Method in brief: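 Compounds were incubated at 2 μM with PMSF-free intestinal S9 (1 mg/mL protein) in 100 mM PBS, pH 7.4, sampling at 6 time points over 120 min. Parent disappearance and formation of the nucleoside metabolite Reference Compound A were quantified by LC-MS (Q-Exactive) using analyte/internal standard peak area ratios.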

[5] = test system: Respiratory syncytial virus recombinant with luciferase (RSV-Luc5) in Normal Human Bronchial Epithelial (NHBE) cells; assay: microbe, parasite or virus in culture; type: cell-based
Plasma stability = type: in vitro ADME; set-up: unit not given here; settings: 37° C., 2 μM substrate
Method in brief: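 Reaction mixture was sampled at 0.05, 0.5, 1, 2, 3 and 4 hr into quench solution containing internal standard, then centrifuged and diluted with water. Remaining analyte was measured by LC-MS on a Q-Exactive using a formic acid/acetonitrile gradient, with 5 ppm mass tolerance.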

[6] = test system: SARS Coronavirus 2 recombinant with NanoLuc (SARS-CoV2-NLuc) in A549-hACE2 cells; assay: organism not typed; type: cell-based
[7] = test system: Caco-2 cells (clone C2BBe1); assay: CACO-2 permeability; type: in vitro ADME; set-up: unit not given here; settings: for DM Caco2 A to B: apical to basolateral, donor pH 6.5, receiver pH 7.4; for DM Caco2 B to A: basolateral to apical
Method in brief: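 Caco-2 monolayers grown 21 days on collagen-coated transwells and checked for integrity by TEER. Donor buffer was HBSS/HEPES/glucose pH 6.5 with 200 μM BNPP; receiver was pH 7.4 with BSA. Compounds were dosed apically or basolaterally for A-to-B and B-to-A transport, with receiver sampling at 1 and 2 h, LC-MS/MS analysis and percent recovery.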

[8] = read-out: EC50 RSVFluc-NHBE 384 V2
[9] = A549, read-out: EC50 SARS CoV2 NanoLuc A549 384

## CC(C)C(=O)OC[C@H]1O[C@@](C#N)(c2ccc3c(N)ncnn23)[C@H](OC(=O)C(C)C)[C@@H]1OC(=O)C(C)C [2nd Ester Reference Compound]
[1]; 0 h, 50 µg/mL, pH 2
  Stability at pH2, 0 hr: 100.0 % AN
[1]; 3 h, 50 µg/mL, pH 2
  Stability at pH2, 3 hr: 100.0 % AN
[1]; 6 h, 50 µg/mL, pH 2
  Stability at pH2, 6 hr: 100.0 % AN
[1]; 9 h, 50 µg/mL, pH 2
  Stability at pH2, 9 hr: 98.3 % AN
[1]; 12 h, 50 µg/mL, pH 2
  Stability at pH2, 12 hr: 97.7 % AN
[1]; 24 h, 50 µg/mL, pH 2
  Stability at pH2, 24 hr: 96.2 % AN

## CC(C)OC(=O)OC[C@H]1O[C@@](C#N)(c2ccc3c(NC(=O)C(C)C)ncnn23)[C@H](OC(=O)C(C)C)[C@@H]1OC(=O)C(C)C [Compound 75, (2R,3R,4R,5R)-2-cyano-2-(4-isobutyramidopyrrolo[2,1-f][1,2,4]triazin-7-yl)-5-(((isopropoxycarbonyl)oxy)methyl)tetrahydrofuran-3,4-diyl bis(2-methylpropanoate)]
[2]
  CC50: > 50000 nM
[3]
  EC50: 1030 nM
[4]
  half-life at 2 µM: 0.884 min
[5]; 72 h, read-out: RSV NHBE EC50
  EC50: 321 nM
Plasma stability
  STA Human Plasma 37: 277.1
[1]; pH2 phosphate buffer, 40° C., 24 h, Table N2
  pH 2 Stability 24 h % AN: 0 % AN
[6]; 48 h, read-out: SARS-CoV2 EC50
  EC50: 5060 nM

## N#C[C@@]1(c2ccc3c(N)ncnn23)O[C@H](COC(=O)OC2CCC(F)(F)CC2)[C@@H](O)[C@H]1O [Compound 84, ((2R,3S,4R,5R)-5-(4-aminopyrrolo[2,1-f][1,2,4]triazin-7-yl)-5-cyano-3,4-dihydroxytetrahydrofuran-2-yl)methyl (4,4-difluorocyclohexyl) carbonate]
[2]
  CC50: > 50000 nM
[3]
  EC50: 311 nM
[4]
  half-life at 2 µM: 0.955 min
[5]; 72 h, read-out: RSV NHBE EC50
  EC50: 205 nM
Plasma stability
  STA Human Plasma 37: 327.2
[7]
  DM Caco2 A to B: 0.27
  DM Caco2 B to A: 6.99
[6]; 48 h, read-out: SARS-CoV2 EC50
  EC50: 1540 nM

## C[C@@H](OC(=O)OC[C@H]1O[C@@](C#N)(c2ccc3c(N)ncnn23)[C@H](O)[C@@H]1O)c1ccccc1 [Compound 87, ((2R,3S,4R,5R)-5-(4-aminopyrrolo[2,1-f][1,2,4]triazin-7-yl)-5-cyano-3,4-dihydroxytetrahydrofuran-2-yl)methyl ((R)-1-phenylethyl) carbonate]
[2]
  CC50: > 50000 nM
[3]
  EC50: 345 nM
[4]
  half-life at 2 µM: 1.25 min
[5]; 72 h, read-out: RSV NHBE EC50
  EC50: 559 nM
Plasma stability
  STA Human Plasma 37: 28.7
[7]
  DM Caco2 A to B: 1.79
  DM Caco2 B to A: 10.98
[6]; 48 h, read-out: SARS-CoV2 EC50
  EC50: 1050 nM

## C[C@H](OC(=O)OC[C@H]1O[C@@](C#N)(c2ccc3c(N)ncnn23)[C@H](O)[C@@H]1O)c1ccccc1 [Compound 88, ((2R,3S,4R,5R)-5-(4-aminopyrrolo[2,1-f][1,2,4]triazin-7-yl)-5-cyano-3,4-dihydroxytetrahydrofuran-2-yl)methyl ((S)-1-phenylethyl) carbonate]
[2]
  CC50: > 50000 nM
[3]
  EC50: 382 nM
[4]
  half-life at 2 µM: 4.91 min
[5]; 72 h, read-out: RSV NHBE EC50
  EC50: 70.2 nM
Plasma stability
  STA Human Plasma 37: 1584
[7]
  DM Caco2 A to B: 2.72
  DM Caco2 B to A: 12.82
[6]; 48 h, read-out: SARS-CoV2 EC50
  EC50: 1630 nM

## CC[C@H](C)OC(=O)OC[C@H]1O[C@@](C#N)(c2ccc3c(N)ncnn23)[C@H](O)[C@@H]1O [Compound 90, ((2R,3S,4R,5R)-5-(4-aminopyrrolo[2,1-f][1,2,4]triazin-7-yl)-5-cyano-3,4-dihydroxytetrahydrofuran-2-yl)methyl ((S)-sec-butyl) carbonate]
[2]
  CC50: > 50000 nM
[3]
  EC50: 249 nM
[4]
  half-life at 2 µM: 0.591 min
[5]; 72 h, read-out: RSV NHBE EC50
  EC50: 180 nM
Plasma stability
  STA Human Plasma 37: 169.9
[7]
  DM Caco2 A to B: 0.9
  DM Caco2 B to A: 7.41
[6]; 48 h, read-out: SARS-CoV2 EC50
  EC50: 1840 nM

## N#C[C@@]1(c2ccc3c(N)ncnn23)O[C@H](COC(=O)OCc2ncccn2)[C@@H](O)[C@H]1O [Compound 91, ((2R,3S,4R,5R)-5-(4-aminopyrrolo[2,1-f][1,2,4]triazin-7-yl)-5-cyano-3,4-dihydroxytetrahydrofuran-2-yl)methyl (pyrimidin-2-ylmethyl) carbonate]
[2]
  CC50: > 50000 nM
[3]
  EC50: 3640 nM
[4]
  half-life at 2 µM: 42 min
[5]; 72 h, read-out: RSV NHBE EC50
  EC50: 5840 nM
Plasma stability
  STA Human Plasma 37: 285
[7]
  DM Caco2 A to B: 0.02
  DM Caco2 B to A: 0.5
[6]; 48 h, read-out: SARS-CoV2 EC50
  EC50: 14700 nM

## N#C[C@@]1(c2ccc3c(N)ncnn23)O[C@H](COC(=O)OCCN2CCOCC2)[C@@H](O)[C@H]1O [Compound 92, ((2R,3S,4R,5R)-5-(4-aminopyrrolo[2,1-f][1,2,4]triazin-7-yl)-5-cyano-3,4-dihydroxytetrahydrofuran-2-yl)methyl (2-morpholinoethyl) carbonate]
[2]
  CC50: > 50000 nM
[3]
  EC50: 1800 nM
[4]
  half-life at 2 µM: 238 min
[5]; 72 h, read-out: RSV NHBE EC50
  EC50: 3040 nM
Plasma stability
  STA Human Plasma 37: 139.9
[7]
  DM Caco2 A to B: 0.07
  DM Caco2 B to A: 0.48
[6]; 48 h, read-out: SARS-CoV2 EC50
  EC50: 5630 nM

## N#C[C@@]1(c2ccc3c(N)ncnn23)O[C@H](COC(=O)OC(CF)CF)[C@@H](O)[C@H]1O [Compound 94, ((2R,3S,4R,5R)-5-(4-aminopyrrolo[2,1-f][1,2,4]triazin-7-yl)-5-cyano-3,4-dihydroxytetrahydrofuran-2-yl)methyl (1,3-difluoropropan-2-yl) carbonate]
[2]
  CC50: > 50000 nM
[3]
  EC50: 1020 nM
[4]
  half-life at 2 µM: 1.13 min
[5]; 72 h, read-out: RSV NHBE EC50
  EC50: 923 nM
Plasma stability
  STA Human Plasma 37: 105.4
[7]
  DM Caco2 A to B: 0.13
  DM Caco2 B to A: 2.19
[6]; 48 h, read-out: SARS-CoV2 EC50
  EC50: 3630 nM

## CC(C)(C)OC(=O)C(C)(C)OC(=O)OC[C@H]1O[C@@](C#N)(c2ccc3c(N)ncnn23)[C@H](O)[C@@H]1O [Compound 138, tert-butyl 2-[[(2R,3S,4R,5R)-5-(4-aminopyrrolo[2,1-f][1,2,4]triazin-7-yl)-5-cyano-3,4-dihydroxy-tetrahydrofuran-2-yl]methoxycarbonyloxy]-2-methyl-propanoate]
[2]
  CC50: > 50000 nM
physchem
  logD: 2
[5]; [8]
  EC50: > 50000 nM
[6]; [9]
  EC50: 21200 nM

## C[C@@H](OC(=O)OC[C@H]1O[C@@](C#N)(c2ccc3c(N)ncnn23)[C@H](O)[C@@H]1O)[C@@H](C(=O)OCC(C)(C)C)N(C)C [Compound 147, neopentyl O-((((2R,3S,4R,5R)-5-(4-aminopyrrolo[2,1-f][1,2,4]triazin-7-yl)-5-cyano-3,4-dihydroxytetrahydrofuran-2-yl)methoxy)carbonyl)-N,N-dimethyl-L-threoninate]
[2]
  CC50: > 50000 nM
physchem
  logD: 2.5
[5]; [8]
  EC50: 2470 nM
[6]; [9]
  EC50: 2850 nM

Reference: US12448383B2, “Compounds and methods for treatment of viral infections” (priority 2022, dated 2025)
